From patent US20050202488A1, “Assay for therapies that inhibit expression of the cytosolic Cu/Zn superoxide dismutase (SOD1) gene” (The General Hospital Corporation, priority 2004, published 2005)

Tested on: human SOD1 promoter
Assay: SOD1 promoter-EGFP reporter high through-put screening assay in stably transfected PC12 cells
Format: cell-based, rat
Settings: PC12 stable cell line treated 24 hrs with increasing mitomycin C concentration; FIG. 2
Description: We have developed a cell-based, fluorescent high through-put screening assay to identify compounds that reduce SOD1 expression using a stable rat pheochromocytoma PC12 cell line with 2.2 kb of human SOD1 promoter sequence driving EGFP expression (FIG. 1).
The human SOD1 promoter was amplified by PCR from a control DNA sample using primers 5′ […] 3′ (SEQ ID NO:3) and 5′ […] 3′ (SEQ ID NO:4). Restriction sites were incorporated into the primers although these were not used for the cloning but to aid transfer into additional vectors in the future. PCR reactions were carried out in a final volume of 40 μl on a thermocycler (Hybaid). PCR reactions contained a final concentration of 3 U Taq polymerase (New England Biolabs, Beverly, Mass.), 150 ng of DNA, 1×PCR buffer, […] of each dNTP, 40 pmoles of forward and reverse primers (MWG-Biotech, High Point, N.C.), 2.5 mM MgCl2, and 5% DMSO. […]
Initial testing of the assay has been carried out using a known inhibitor of SOD1 expression, mitomycin C (Cho C., et al., (1997), The transcriptional repression of the human Cu/Zn superoxide dismutase(sod1) gene by the anticancer drug, mitomycin C(MMC), Biochem Mol Biol Int., 42:949-56). […] The level of EGFP fluorescence was read on a Wallac plate reader (Perkin Elmer, Boston, Mass.) (excitation 485 nm, emission 535 nm). […]

CO[C@@]12[C@H](COC(N)=O)C3=C(C(=O)C(C)=C(N)C3=O)N1C[C@@H]1N[C@@H]12 [mitomycin C]
EGFP fluorescence (relative expression level): progressive decrease in fluorescence
